The results in this text go back to patent publication US20060205743A1, “Protein kinase inhibitors” (priority 2003, published 2006).

The experiment concerns the target MAPKAP-K2 (Homo sapiens, UniProt P49137). As to the kind of experiment: MAPKAP-Kinase 2 Assay (33P-ATP peptide phosphorylation, filter plate). To be noted: assays conducted at typically 1-100 μM. Also on record: key: +: active; ++: more active; +++: very active. The class given is biochemical. Here is the method: MAPKAP-Kinase 2 Assay [Compound Preparation]
Compounds are dissolved in DMSO at a concentration of 3 mM and stored in aliquots at −20° C. Compounds in DMSO from these stock aliquots are diluted in 30% DMSO to produce initial working stock solutions of 1 mM and 3 mM. Both of these stock solutions are then subjected to 1:10 serial dilutions in 30% DMSO in order to prepare 3000, 1000, 300, 100, 30, 10, 3, 1, 0.1, 0.01 μM stock solutions. 5 μl of each stock solution is used per 50 μl reaction to give final assay concentrations of 300, 100, 30, 10, 3, 1, 0.3, 0.1, 0.01, 0.001 μM.
The kinase reaction is conducted in a round-bottomed polypropylene 96-well plate. MAPKAP-K2 is diluted to 25 mU/μl in diluent buffer (50 mM Tris/HCl. pH7.5, 0.1 mM EGTA, 0.1% (v/v) β-mercaptoethanol, 1 mg/ml BSA). 5 μl compound or 30% DMSO is added to each well followed by 25 μl substrate cocktail (10 μM ATP, 30 μM peptide (KKLNRTLSVA), 0.5 μCi ^33P-γ-ATP in 50 mM Tris pH7.5, 0.1 mM EGTA, 10 mM Mg-acetate, 0.1% BME). The reaction is initiated with the addition of 20 μl enzyme solution per well or 20 μl diluent buffer without enzyme. The plate is shaken for 10 sec and then left at room temperature for 30 min. The reaction is terminated with 50 μl 150 mM phosphoric acid. 90 μl of the reaction mixture is then transferred into a 96-well P81 filter plate (Millipore) and incubated at room temperature for 5 min. The filter plate is then washed 4 times with 200 μl 75 mM phosphoric acid per well on a plate vacuum manifold (Millipore) and dried in an oven for 2-3 h. Packard MicroScint ‘0’ (30 μl) is then added to each well, the plate is mixed for 30 min and subjected to liquid scintillation counting on a Packard TopCount.
[Interpretation] %Control=(X−B)/(Tot−B)×100 %Inhibition=100−% Control X=cpm of the test compound wells B=cpm of wells without enzyme Tot=cpm of wells with DMSO vehicle only

MAPKAP-K2, sequence (P49137 whole entry): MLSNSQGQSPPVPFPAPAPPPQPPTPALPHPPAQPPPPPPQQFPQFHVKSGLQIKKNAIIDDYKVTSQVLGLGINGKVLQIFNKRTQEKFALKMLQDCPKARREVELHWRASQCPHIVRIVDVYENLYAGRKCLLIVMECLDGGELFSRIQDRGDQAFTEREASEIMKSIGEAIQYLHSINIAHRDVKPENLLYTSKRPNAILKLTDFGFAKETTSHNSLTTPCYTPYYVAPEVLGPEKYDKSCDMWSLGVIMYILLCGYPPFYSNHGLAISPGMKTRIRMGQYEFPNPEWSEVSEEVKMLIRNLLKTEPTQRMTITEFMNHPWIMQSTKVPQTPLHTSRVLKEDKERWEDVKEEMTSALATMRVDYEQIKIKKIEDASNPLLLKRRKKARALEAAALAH

With `N[C@H]1CC[C@H](Nc2cc(NCc3ccc(F)c(Cl)c3)n3nccc3n2)CC1` [Compound 1], the MAPKAP-K2 activity result is listed as “++”.

For `N[C@H]1CC[C@H](Nc2cc(Nc3ccc(F)c(Cl)c3)n3nccc3n2)CC1` [Compound 2], the MAPKAP-K2 activity result is reported as “+++”.

In the case of `N[C@H]1CC[C@H](Nc2cc(Nc3ccc(Cl)c(Cl)c3)n3nccc3n2)CC1` [Compound 3], the MAPKAP-K2 activity entry was “+++”.

For `N[C@H]1CC[C@H](Nc2cc(Nc3ccc4c(c3)OC(F)(F)O4)n3nccc3n2)CC1` [Compound 4], the MAPKAP-K2 activity entry is on record as “++”.

Regarding `COc1ccc(Nc2cc(N[C@H]3CC[C@H](N)CC3)nc3ccnn23)cc1Cl` [Compound 5], the MAPKAP-K2 activity result is “+++”.

Take `Cc1ccc(Nc2cc(N[C@H]3CC[C@H](N)CC3)nc3ccnn23)cc1Cl` [Compound 6]: the MAPKAP-K2 activity result is on record as “+++”.

Regarding `Cc1ccsc1CNc1cc(N[C@H]2CC[C@H](N)CC2)nc2ccnn12` [Compound 7], the MAPKAP-K2 activity entry is “++”.

With `N[C@H]1CC[C@H](Nc2cc(NCc3cccc(Cl)c3)n3nccc3n2)CC1` [Compound 8], the MAPKAP-K2 activity result is recorded as “++”.

Regarding `Cc1ccccc1Nc1cc(N[C@H]2CC[C@H](N)CC2)nc2ccnn12` [Compound 9], the MAPKAP-K2 activity result is on record as “+++”.

As for `N[C@H]1CC[C@H](Nc2cc(Nc3ccccc3)n3nccc3n2)CC1` [Compound 10], the MAPKAP-K2 activity result is on record as “+++”.

With `N[C@H]1CC[C@H](Nc2cc(Nc3cccc(Cl)c3)n3nccc3n2)CC1` [Compound 11], the MAPKAP-K2 activity entry is on record as “+++”.

As to `N[C@H]1CC[C@H](Nc2cc(Nc3ccc(Cl)cc3)n3nccc3n2)CC1` [Compound 12], the MAPKAP-K2 activity entry was “+++”.

On to `N[C@H]1CC[C@H](Nc2cc(Nc3ccccc3Cl)n3nccc3n2)CC1` [Compound 13], for which the MAPKAP-K2 activity entry is reported as “+++”.

Regarding `N[C@H]1CC[C@H](Nc2cc(NCc3ccc(Cl)cc3)n3nccc3n2)CC1` [Compound 14], the MAPKAP-K2 activity entry was “++”.

Consider `CN(C)c1ccc(Nc2cc(N[C@H]3CC[C@H](N)CC3)nc3ccnn23)cc1` [Compound 15], for which the MAPKAP-K2 activity result is “+++”.

As to `N[C@H]1CC[C@H](Nc2cc(Nc3ccc(F)cc3)n3nccc3n2)CC1` [Compound 16], the MAPKAP-K2 activity result is recorded as “+++”.

With `COc1ccc(Nc2cc(N[C@H]3CC[C@H](N)CC3)nc3ccnn23)cc1` [Compound 17], the MAPKAP-K2 activity entry is reported as “+++”.

For `N[C@H]1CC[C@H](Nc2cc(Nc3ccc(F)c(Cl)c3)n3nccc3n2)CC1` [Compound 18], the MAPKAP-K2 activity result is “+”.

With `CN(C)c1cccc(Nc2cc(N[C@H]3CC[C@H](N)CC3)nc3ccnn23)c1` [Compound 19], the MAPKAP-K2 activity entry was “+++”.

`N[C@H]1CC[C@H](Nc2cc(Nc3ccc(C(F)(F)F)cc3)n3nccc3n2)CC1` [Compound 20]: the MAPKAP-K2 activity result is “+++”.

As for `N[C@H]1CC[C@H](Nc2cc(Nc3ccc(Oc4ccccc4)cc3)n3nccc3n2)CC1` [Compound 21], the MAPKAP-K2 activity result is listed as “+++”.

On to `N[C@H]1CC[C@H](Nc2cc(Nc3ccc(F)cc3F)n3nccc3n2)CC1` [Compound 22], for which the MAPKAP-K2 activity entry is listed as “+++”.

As for `CC(Nc1cc(N[C@H]2CC[C@H](N)CC2)nc2ccnn12)c1ccccc1` (stereo partly drawn) [Compound 23], the MAPKAP-K2 activity result is reported as “+”.

As to `CC(Nc1cc(N[C@H]2CC[C@H](N)CC2)nc2ccnn12)c1ccc(F)cc1` (stereo partly drawn) [Compound 24], the MAPKAP-K2 activity result was “+”.

Regarding `CC(=O)NC1CCC(Nc2cc(Nc3ccc(F)c(Cl)c3)n3nccc3n2)CC1` (stereo not drawn) [Compound 25], the MAPKAP-K2 activity entry is “+”.

For `CSc1ccc(Nc2cc(N[C@H]3CC[C@H](N)CC3)nc3ccnn23)cc1` [Compound 26], the MAPKAP-K2 activity result was “+++”.

For the molecule `CS(=O)(=O)NC1CCC(Nc2cc(Nc3ccc(F)c(Cl)c3)n3nccc3n2)CC1` (stereo not drawn) [Compound 27], the MAPKAP-K2 activity result is “+”.

With `O=C(NC1CCC(Nc2cc(Nc3ccc(F)c(Cl)c3)n3nccc3n2)CC1)c1ccccc1` (stereo not drawn) [Compound 28], the MAPKAP-K2 activity entry is on record as “+”.

Take `NC1CCC(Nc2cc(NCCc3ccccc3)n3nccc3n2)CC1` (stereo not drawn) [Compound 29]: the MAPKAP-K2 activity result is “++”.

On to `NC1CCC(Nc2cc(NCCOc3ccccc3)n3nccc3n2)CC1` (stereo not drawn) [Compound 31], for which the MAPKAP-K2 activity entry is reported as “+”.

For the molecule `N#Cc1cccc(Nc2cc(NC3CCC(N)CC3)nc3ccnn23)c1` (stereo not drawn) [Compound 32], the MAPKAP-K2 activity entry was “+++”.

Regarding `CC(C)(C)c1ccc(Nc2cc(NC3CCC(N)CC3)nc3ccnn23)cc1` (stereo not drawn) [Compound 34], the MAPKAP-K2 activity entry is reported as “++”.

Consider `CCOc1ccc(Nc2cc(NC3CCC(N)CC3)nc3ccnn23)cc1` (stereo not drawn) [Compound 35], for which the MAPKAP-K2 activity result is listed as “+++”.

For `CCCc1ccc(Nc2cc(NC3CCC(N)CC3)nc3ccnn23)cc1` (stereo not drawn) [Compound 36], the MAPKAP-K2 activity result is “+++”.

Consider `CC(C)c1ccc(Nc2cc(NC3CCC(N)CC3)nc3ccnn23)cc1` (stereo not drawn) [Compound 37], for which the MAPKAP-K2 activity result was “+++”.

In the case of `CNC(=O)NC1CCC(Nc2cc(Nc3ccc(F)c(Cl)c3)n3nccc3n2)CC1` (stereo not drawn) [Compound 38], the MAPKAP-K2 activity result is “+”.

Turning to `NC1CCC(Nc2cc(NCc3ccc(Cl)c(Cl)c3)n3nccc3n2)CC1` (stereo not drawn) [Compound 39], the MAPKAP-K2 activity result is “++”.

For the molecule `NC1CCC(Nc2cc(Nc3cccc(I)c3)n3nccc3n2)CC1` (stereo not drawn) [Compound 40], the MAPKAP-K2 activity entry is “+++”.

Take `NC1CCC(Nc2cc(Nc3ccc(Oc4ccc(Cl)cc4)cc3)n3nccc3n2)CC1` (stereo not drawn) [Compound 41]: the MAPKAP-K2 activity entry is “+++”.

Consider `NC1CCC(Nc2cc(Nc3ccc(Oc4cccc(C(F)(F)F)c4)cc3)n3nccc3n2)CC1` (stereo not drawn) [Compound 42], for which the MAPKAP-K2 activity entry is on record as “+++”.

Take `Cc1ccc(Nc2cc(NC3CCC(N)CC3)nc3ccnn23)cc1C` (stereo not drawn) [Compound 43]: the MAPKAP-K2 activity result was “+++”.

For `Cc1cccc(Nc2cc(NC3CCC(N)CC3)nc3ccnn23)c1` (stereo not drawn) [Compound 44], the MAPKAP-K2 activity result was “+++”.

As to `Cc1cccc(C)c1Nc1cc(NC2CCC(N)CC2)nc2ccnn12` (stereo not drawn) [Compound 45], the MAPKAP-K2 activity result was “++”.

With `NC1CCC(Nc2cc(Nc3cccc(Oc4ccccc4)c3)n3nccc3n2)CC1` (stereo not drawn) [Compound 46], the MAPKAP-K2 activity result was “+++”.

Take `COc1ccccc1Nc1cc(NC2CCC(N)CC2)nc2ccnn12` (stereo not drawn) [Compound 47]: the MAPKAP-K2 activity result is given as “++”.

`C=CCNc1cc(NC2CCC(N)CC2)nc2ccnn12` (stereo not drawn) [Compound 48]: the MAPKAP-K2 activity entry is “++”.

As to `O=C(Nc1ccccc1)NC1CCC(Nc2cc(Nc3ccc(F)c(Cl)c3)n3nccc3n2)CC1` (stereo not drawn) [Compound 49], the MAPKAP-K2 activity entry is “+”.

Consider `CN1CCN(Nc2cc(Nc3ccc(F)c(Cl)c3)n3nccc3n2)CC1` [Compound 50], for which the MAPKAP-K2 activity result is reported as “+”.

`NC1CCC(Nc2cc(Nc3ccc4c(c3)OCO4)n3nccc3n2)CC1` (stereo not drawn) [Compound 51]: the MAPKAP-K2 activity result is given as “+++”.

Turning to `NC1CCC(Nc2cc(Nc3ccc(OCc4ccccc4)cc3)n3nccc3n2)CC1` (stereo not drawn) [Compound 52], the MAPKAP-K2 activity result was “+++”.

For `NC1CCC(Nc2cc(NCc3cccc(I)c3)n3nccc3n2)CC1` (stereo not drawn) [Compound 53], the MAPKAP-K2 activity result was “++”.

As to `CCOc1ccccc1Nc1cc(NC2CCC(N)CC2)nc2ccnn12` (stereo not drawn) [Compound 54], the MAPKAP-K2 activity entry was “++”.

Regarding `NC1CCC(Nc2cc(Nc3ccc4c(c3)OC(F)(F)O4)n3nccc3n2)CC1` (stereo not drawn) [Compound 55], the MAPKAP-K2 activity result is reported as “++”.

`CN1CCC(Nc2cc(Nc3ccc(F)c(Cl)c3)n3nccc3n2)CC1` [Compound 56]: the MAPKAP-K2 activity result is “++”.
